Source: US20160075653A1, “NEMATICIDAL N-(PHENYLCYCLOALKYL)CARBOXAMIDES AND N-(PHENYLCYCLOALKYL)THIOCARBOXAMIDES” (BAYER CROPSCIENCE AKTIENGESELLSCHAFT, priority 2013, published 2016)
Where two headings read alike, the source gives them in different places.

How the values were obtained:
Meloidogyne incognita = Meloidogyne incognita test (MELGIN), gall formation on salad seedlings; type: in vivo; conditions: application rate 20 ppm, after 14 days
Description: Meioidovnve incomita—Test (MELGIN)
Solvent: 125.0 parts by weight of acetone
To produce a suitable preparation of active compound, 1 part by weight of active compound is mixed with the stated amount of solvent, and the concentrate is diluted with water to the desired concentration.
Vessels are filled with sand, a solution of the active ingredient, a suspension containing eggs and larvae of the southern root-knot nematode (Meloidogyne incognita) and salad seeds. The salad seeds germinate and the seedlings grow. Galls develop in the roots.
After 14 days the nematicidal activity is determined on the basis of the percentage of gall formation. 100% means that no galls were found; 0% means the number of galls found on the roots of the treated plants was equal to that in untreated control plants.

[1] = Measurement of log P values by HPLC on reversed phase columns (methods [a] pH 2.3, [b] pH 2.7, [c] pH 7.8); type: physicochemical; conditions: for chromatographic logP: reversed phase HPLC columns
Summary of the method: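 Retention times were converted to log P by linear interpolation between linear alkan-2-one standards (3 to 16 carbons) of known log P. Eluents, each with 10% to 95% acetonitrile gradient: phosphoric acid 0.1% at pH 2.3 [a]; formic acid 0.1% at pH 2.7, LC-MS [b]; ammonium hydrogen carbonate 0.001 molar at pH 7.8, LC-MS [c].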

[2] = HPLC reversed phase, method [b] (pH 2.7)
[3] = HPLC on reversed phase column, method [b], pH 2.7
[4] = HPLC reversed phase, method [c] pH 7.8
[5] = pH 2.7, HPLC on reversed phase columns, method [b] (pH 2.7), read-out: logP
[6] = HPLC on reversed phase columns, method [b], pH 2.7
[7] = method [b], HPLC reversed phase, pH 2.7

| logP [1, 2] | SMILES | nematicidal activity (percentage of gall formation; 100% = no galls) (Meloidogyne incognita) | other results |
| --- | --- | --- | --- |
| 3.90^[b] | O=C(N[C@@H]1CC[C@H]1c1ccc(Cl)cc1Cl)c1ccccc1Cl (relative stereo) [Compound 256] | 90% | – |
| – | O=C(N[C@@H]1CC[C@@H]1c1cccc(F)c1C(F)(F)F)c1cccnc1Cl (relative stereo) [Compound 647] | 100% | logP [1, 3]: 2.66^[b] |
| – | O=C(N[C@@H]1CC[C@@H]1c1cccc(F)c1C(F)(F)F)c1ccc(Cl)cc1Cl (relative stereo) [Compound 594] | 90% | logP [1, 3]: 3.73^[b] |
| 2.85^[b] | O=C(NC1CC1c1ccc(Cl)cc1)c1ncccc1C(F)(F)F (stereo not drawn) [Compound 462] | 100% | logP [1, 4]: 2.81^[c]; |
| 2.22^[b] | O=C(N[C@@H]1CC[C@@H]1c1cc(F)ccc1C(F)(F)F)c1cccnc1 (relative stereo) [Compound 587] | 90% | – |
| 2.29^[b] | O=C(NC1CC1c1ccc(Cl)cc1)c1nccnc1Cl (stereo not drawn) [Compound 461] | 100% | logP [1, 4]: 2.27^[c]; |
| 3.08^[b] | O=C(N[C@@H]1CC[C@@H]1c1ccccc1Cl)c1ccccc1Cl (relative stereo) [Compound 248] | 90% | – |
| 3.52^[b] | O=C(NC1CCCC1c1ccccc1Br)c1ccccc1Cl (stereo not drawn) [Compound 349] | 90% | – |
| – | O=C(NC1CC1c1ccccc1)c1cccnc1C(F)F (stereo not drawn) [Compound 225] | 90% | – |
| – | O=C(N[C@@H]1C[C@]1(F)c1ccc(Cl)cc1)c1ccccc1Br [Example 751] | – | chromatographic logP [1, 5]: 2.84 |
| – | Cc1nn(C)c(F)c1C(=O)NC1CC1c1ccc(Cl)cc1 (stereo not drawn) [Example 12] | – | logP [1, 6]: 3.04^[b] |
| 3.65^[b] | O=C(N[C@@H]1CC[C@@H]1c1ccc(F)cc1C(F)(F)F)c1cccc(Cl)c1 (relative stereo) [Example 511] | – | – |
| – | Cc1nn(C)cc1C(=O)NC1CC1c1ccccc1 (stereo not drawn) [Example 6] | – | logP [1, 6]: 1.70^[b] |
| 3.16^[b] | O=C(N[C@@H]1CC[C@H]1c1ccc(F)cc1C(F)(F)F)c1nccnc1Cl (relative stereo) [Example 525] | – | – |
| 3.80^[b] | Cc1nc(C(F)(F)F)c(C(=O)N[C@@H]2CCC[C@@H]2c2ccc(OC(C)C)cc2)s1 (relative stereo) [Example 342] | – | logP [1, 4]: 3.71^[c]; |
| – | O=C(N[C@@H]1CC[C@H]1c1cccc(F)c1C(F)(F)F)c1ccccc1[N+](=O)[O-] (relative stereo) [Example 629] | – | logP [1, 3]: 3.18^[b] |
| – | Cc1nc(C(F)(F)F)c(C(=O)N[C@@H]2CCC[C@@H]2c2ccc(F)c(F)c2)s1 (relative stereo) [Example 55] | – | logP [1, 6]: 3.19^[b] |
| 3.05^[b] | O=C(NC1CCCC1c1c(F)cccc1F)c1c(F)cccc1F (stereo not drawn) [Example 314] | – | – |
| 3.12^[b] | O=C(NC1CC1c1ccc(Cl)cc1)c1ccccc1F (stereo not drawn) [Example 422] | – | logP [1, 4]: 3.07^[c]; |
| – | O=C(N[C@@H]1CC[C@@H]1c1c(Cl)cccc1Cl)c1ccc(Cl)cc1Cl [Example 741] | – | chromatographic logP [1, 5]: 4.1 |
| – | Cc1nc(C(F)(F)F)c(C(=O)N[C@@H]2CC[C@@H]2c2ccccc2C(F)(F)F)s1 (relative stereo) [Example 634] | – | logP [1, 3]: 3.34^[b] |
| – | Cn1cc(C(=O)NC2CCCCC2c2ccccc2)c(C(F)F)n1 (stereo not drawn) [Example 186] | – | logP [1, 7]: 3.00^[b] |

| logP [1, 2] | SMILES | nematicidal activity (percentage of gall formation; 100% = no galls) (Meloidogyne incognita) | other results |
| --- | --- | --- | --- |
| – | O=C(N[C@@H]1CC[C@H]1c1ccccc1C(F)(F)F)c1sccc1I (relative stereo) [Example 635] | – | logP [1, 3]: 3.99^[b] |
| – | O=C(N[C@@H]1CCC[C@@H]1c1ccc(F)c(F)c1)c1ncccc1C(F)(F)F (relative stereo) [Example 90] | – | logP [1, 6]: 3.31^[b] |
| – | O=C(N[C@@H]1CC[C@H]1c1cccc(F)c1C(F)(F)F)c1nccnc1Cl (relative stereo) [Example 646] | – | logP [1, 3]: 3.10^[b] |
| – | Cn1nc(C(F)F)c(C(=O)N(C2CC2)C2CCCCC2c2ccccc2Cl)c1F (stereo not drawn) [Example 169] | – | logP [1, 7]: 4.49^[b] |
| – | Cn1cccc1C(=O)N[C@@H]1CCC[C@H]1c1ccc(F)c(F)c1 (relative stereo) [Example 132] | – | logP [1, 7]: 3.23^[b] |
| – | Cc1nc(C(F)(F)F)c(C(=O)NC2CC2c2ccccc2)s1 (stereo not drawn) [Example 8] | – | logP [1, 6]: 2.66^[b] |
| 3.92^[b] | CC(C)Oc1ccc([C@H]2CCC[C@H]2NC(=O)c2ccccc2I)cc1 (relative stereo) [Example 333] | – | logP [1, 4]: 3.89^[c]; |
| 3.53^[b] | O=C(NC1CCCCC1c1ccccc1Br)c1cccnc1C(F)(F)F (stereo not drawn) [Example 403] | – | – |
| 3.35^[b] | Cc1nc(C)c(C(=O)NC2CCCCC2c2ccccc2Br)s1 (stereo not drawn) [Example 401] | – | – |
| – | Cc1ncc(C(=O)N[C@@H]2CCC[C@H]2c2ccc(F)c(F)c2)s1 (relative stereo) [Example 108] | – | logP [1, 6]: 2.64^[b] |
| 3.88^[b] | O=C(NC1CCC1c1ccccc1C(F)(F)F)c1ncc(C(F)(F)F)cc1Cl (stereo not drawn) [Example 437] | – | – |
| – | Cc1nn(C)c(C)c1C(=O)N(C1CC1)C1CCCCC1c1ccccc1 (stereo not drawn) [Example 146] | – | logP [1, 7]: 3.13^[b] |
| – | Cc1nn(C)c(C)c1C(=O)NC1CC1c1ccc(Cl)cc1 (stereo not drawn) [Example 13] | – | logP [1, 6]: 2.89^[b] |
| – | O=C(N[C@@H]1CC[C@@H]1c1ccccc1C(F)(F)F)c1sccc1I (relative stereo) [Example 636] | – | logP [1, 3]: 3.83^[b] |
| – | O=C(N[C@@H]1CC[C@H]1c1cccc(F)c1C(F)(F)F)c1cccc(Cl)c1 (relative stereo) [Example 596] | – | logP [1, 3]: 3.92^[b] |
| 3.78^[b] | O=C(NC1CCCCC1c1ccccc1Br)c1c(F)cccc1F (stereo not drawn) [Example 404] | – | – |
| – | O=C(N[C@H]1CCC1c1ccccc1C(F)(F)F)c1ccccc1I (stereo in doubt) [Preparation Example 5, cis-2-iodo-N-{2-[2-(trifluoromethyl)phenyl]cyclobutyl}benzamide] | – | chromatographic logP ([1]; HPLC-MS, method letter not given, read-out: log P): 3.44 |
| – | CC1=C(C(=O)N[C@@H]2CCC[C@@H]2c2ccc(F)c(F)c2)SCCO1 (relative stereo) [Example 79] | – | logP [1, 6]: 3.15^[b] |
| – | Cn1cc(C(=O)N(C2CC2)C2CCCCC2c2ccccc2)c(C(F)F)n1 (stereo not drawn) [Example 143] | – | logP [1, 7]: 3.55^[b] |
| – | O=C(N[C@@H]1CC[C@H]1c1ccc(Cl)cc1Cl)c1cccnc1Cl (relative stereo) [Example 674] | – | logP [1, 3]: 3.16^[b] |
| 3.68^[b] | O=C(NC1CCCCC1c1ccccc1C(F)(F)F)c1cccnc1C(F)(F)F (stereo not drawn) [Example 375] | – | – |
| – | O=C(NC1CC1c1ccc(Cl)cc1)c1occc1Br (stereo not drawn) [Example 204] | – | logP [1, 7]: 3.04^[b]; logP ([1]; method [c], HPLC reversed phase, pH 7.8): 2.98^[c]; |

| SMILES | logP [1, 2] | nematicidal activity (percentage of gall formation; 100% = no galls) (Meloidogyne incognita) | other results |
| --- | --- | --- | --- |
| O=C(NC1CCC1c1ccc(Cl)cc1Cl)c1ccccc1C(F)(F)F (stereo not drawn) [Compound 476] | 3.72^[b] | 90% | – |
| O=C(N[C@@H]1CC[C@H]1c1ccc(F)cc1C(F)(F)F)c1ccccc1Br (relative stereo) [Compound 501] | 3.64^[b] | 100% | – |
| O=C(N[C@@H]1CC[C@@H]1c1ccccc1Cl)c1ccccc1I (relative stereo) [Compound 250] | 3.23^[b] | 100% | – |
| O=C(N[C@@H]1CC[C@@H]1c1cc(F)ccc1C(F)(F)F)c1ccccc1[N+](=O)[O-] (relative stereo) [Compound 540] | 3.07^[b] | 100% | – |
| O=C(N[C@@H]1CC[C@@H]1c1c(F)cccc1C(F)(F)F)c1c(F)cccc1F (relative stereo) [Compound 564] | 3.25^[b] | 100% | – |
| O=C(N[C@@H]1CC[C@@H]1c1ccc(F)cc1C(F)(F)F)c1ccccc1I (relative stereo) [Compound 503] | 3.50^[b] | 100% | – |
| O=C(N[C@@H]1CC[C@H]1c1ccccc1Cl)c1sccc1I (relative stereo) [Compound 544] | 3.86^[b] | 90% | – |
| O=C(NC1CCC1c1ccc(Cl)cc1Cl)c1c(F)cccc1F (stereo not drawn) [Compound 482] | 3.70^[b] | 90% | – |
| O=C(N[C@@H]1CC[C@@H]1c1cc(F)ccc1C(F)(F)F)c1sccc1I (relative stereo) [Compound 570] | 3.79^[b] | 100% | – |
| O=C(N[C@@H]1CC[C@@H]1c1ccc(F)cc1C(F)(F)F)c1c(F)cccc1F (relative stereo) [Compound 493] | 3.18^[b] | 100% | – |
| O=C(N[C@@H]1CC[C@@H]1c1ccc(F)cc1C(F)(F)F)c1ccccc1[N+](=O)[O-] (relative stereo) [Compound 522] | 3.04^[b] | 90% | – |
| O=C(N[C@@H]1CCC[C@@H]1c1ccccc1F)c1ccc(I)s1 (relative stereo) [Compound 337] | 3.70^[b] | – | logP [1, 4]: 3.58^[c]; |
| O=C(NC1CC1c1ccc(Cl)cc1)c1ccsc1I (stereo not drawn) [Compound 460] | 2.94^[b] | – | logP [1, 4]: 2.93^[c]; |
